Marks after values point to notes of the source that are not given here.
Legend:
Conditions in all cases: mean ± SD
plasma protein [1] = test: Plasma protein binding ratio (PPBR) by ultrafiltration, grass carp plasma; type: in vitro ADME, grass carp (Ctenopharyngodon idella)
Protocol: (§1) The detailed procedures and the pretreatment of the ultrafiltration unit (UFU) were in line with the previous reports. In brief, the nonspecific absorption (NSB) of UFU was first checked before and after pretreatment of 5% Tween 80. […] Firstly, 100 μL of the sample was used to evaluate the initial concentration before centrifugation. […] To reduce the NSB of UFU, 100 μL of 5% Tween 80 was used to treat UFU at 25 °C for 5 min, and 0.5 mL of physiological saline was used to wash off Tween 80. The NSB of UFU was repeatedly determined again in light of the above-mentioned method.
(§2) The samples of sterile physiological saline were detected without extraction by HPLC. As for the samples of plasma, 0.1 mL of plasma was decanted into a 10 mL centrifugation tube. The extraction method is the same as the reported literature.
(§3) The proportion of the mobile phase was 82:18 (water containing 0.2% formic acid and pure acetonitrile, v/v), following the flow rate of 0.8 mL/min. The excitation wavelength was 280 nm. The emission wavelength was 450 nm.

plasma protein [2] = test: Plasma protein binding ratio (PPBR) by ultrafiltration, yellow catfish plasma; type: in vitro ADME, yellow catfish (Pelteobagrus fulvidraco)
Protocol: as §1, §2, §3

plasma protein [3] = test: Plasma protein binding ratio (PPBR) by ultrafiltration, largemouth bass plasma; type: in vitro ADME, largemouth bass (Micropterus salmoides)
Protocol: as §1, §2, §3

[4] = 1 μg/mL, 15 °C, n = 3, listed as EF
[5] = 1 μg/mL, 25 °C, n = 3, listed as Enrofloxacin
[6] = 5 μg/mL, 15 °C, n = 3, listed as Enrofloxacin
[7] = 5 μg/mL, 25 °C, n = 3, listed as Enrofloxacin
[8] = 10 μg/mL, 15 °C, n = 3, listed as EF
[9] = 10 μg/mL, 15 °C, n = 3, listed as Enrofloxacin
[10] = 10 μg/mL, 20 °C, n = 3, listed as Enrofloxacin
[11] = 10 μg/mL, 25 °C, n = 3, listed as Enrofloxacin
[12] = 5 μg/mL, 20 °C, n = 3, listed as Enrofloxacin

CCN1CCN(c2cc3c(cc2F)c(=O)c(C(=O)O)cn3C2CC2)CC1 [Enrofloxacin (EF), Enrofloxacin]
PPBRs (%) (plasma protein [1]; 1 μg/mL, 15 °C, n = 3): 60.52 ± 0.99 ^a % | PPBRs (%) (plasma protein [1]; [4]): 60.52% | PPBRs (%) (plasma protein [1]; 1 μg/mL, 20 °C, n = 3): 51.27 ± 1.56 ^a % | PPBRs (%) (plasma protein [1]; 1 μg/mL, 20 °C, n = 3, listed as Enrofloxacin): 51.27 ± 1.56 ^b % | PPBRs (%) (plasma protein [1]; 1 μg/mL, 25 °C, n = 3): 50.09 ± 2.06 ^a % | PPBRs (%) (plasma protein [1]; [5]): 50.09 ± 2.06 ^b % | PPBRs (%) (plasma protein [1]; 5 μg/mL, 15 °C, n = 3): 33.77 ± 0.07 ^B % | PPBRs (%) (plasma protein [1]; [6]): 33.77 ± 0.07 ^a % | PPBRs (%) (plasma protein [1]; 5 μg/mL, 20 °C, n = 3): 22.07 ± 1.19 ^B % | PPBRs (%) (plasma protein [1]; 5 μg/mL, 25 °C, n = 3): 23.36 ± 3.86 ^B % | PPBRs (%) (plasma protein [1]; [7]): 23.36 ± 3.86 ^a % | PPBRs (%) (plasma protein [1]; 10 μg/mL, 15 °C, n = 3): 16.95 ± 1.81 ^C % | PPBRs (%) (plasma protein [1]; [8]): 16.95% | PPBRs (%) (plasma protein [1]; [9]): 16.95 ± 1.81 ^a % | PPBRs (%) (plasma protein [1]; 10 μg/mL, 20 °C, n = 3): 8.34 ± 2.29 ^C % | PPBRs (%) (plasma protein [1]; [10]): 8.34 ± 2.29 ^b % | PPBRs (%) (plasma protein [1]; 10 μg/mL, 25 °C, n = 3): 5.52 ± 1.99 ^C % | PPBRs (%) (plasma protein [1]; [11]): 5.52 ± 1.99 ^B % | PPBRs (%) (plasma protein [2]; 1 μg/mL, 20 °C, n = 3): 46.10 ± 3.13 ^a % | PPBRs (%) (plasma protein [2]; 1 μg/mL, 20 °C, n = 3, listed as EF): 46.10% | PPBRs (%) (plasma protein [2]; 1 μg/mL, 25 °C, n = 3): 43.90 ± 3.62 ^a % | PPBRs (%) (plasma protein [2]; 1 μg/mL, 25 °C, n = 3, listed as EF): 43.9% | PPBRs (%) (plasma protein [2]; [5]): 43.90 ± 3.62 ^ab % | PPBRs (%) (plasma protein [2]; 5 μg/mL, 15 °C, n = 3): 22.53 ± 6.86 ^b % | PPBRs (%) (plasma protein [2]; 5 μg/mL, 15 °C, n = 3, listed as EF): 22.53% | PPBRs (%) (plasma protein [2]; [6]): 22.53 ± 6.86 ^a % | PPBRs (%) (plasma protein [2]; 5 μg/mL, 20 °C, n = 3): 21.24 ± 6.93 ^b % | PPBRs (%) (plasma protein [2]; [12]): 21.24 ± 6.93 ^a % | PPBRs (%) (plasma protein [2]; 5 μg/mL, 25 °C, n = 3): 17.29 ± 0.69 ^b % | PPBRs (%) (plasma protein [2]; 5 μg/mL, 25 °C, n = 3, listed as EF): 17.29% | PPBRs (%) (plasma protein [2]; [7]): 17.29 ± 0.69 ^a % | PPBRs (%) (plasma protein [2]; 10 μg/mL, 15 °C, n = 3): 9.66 ± 4.09 ^c % | PPBRs (%) (plasma protein [2]; [8]): 9.66% | PPBRs (%) (plasma protein [2]; [9]): 9.66 ± 4.09 ^ab % | PPBRs (%) (plasma protein [2]; 10 μg/mL, 20 °C, n = 3): 13.52 ± 4.74 ^b % | PPBRs (%) (plasma protein [2]; 10 μg/mL, 20 °C, n = 3, listed as EF): 13.52% | PPBRs (%) (plasma protein [2]; [10]): 13.52 ± 4.74 ^a % | PPBRs (%) (plasma protein [2]; 10 μg/mL, 25 °C, n = 3): 4.36 ± 0.58 ^c % | PPBRs (%) (plasma protein [2]; 10 μg/mL, 25 °C, n = 3, listed as EF): 4.36% | PPBRs (%) (plasma protein [2]; [11]): 4.36 ± 0.58 ^b % | PPBRs (%) (plasma protein [3]; 1 μg/mL, 15 °C, n = 3): 35.11 ± 5.18 ^a % | PPBRs (%) (plasma protein [3]; [4]): 35.11% | PPBRs (%) (plasma protein [3]; 1 μg/mL, 20 °C, n = 3): 37.93 ± 6.11 ^a % | PPBRs (%) (plasma protein [3]; 1 μg/mL, 25 °C, n = 3): 39.12 ± 1.72 ^a % | PPBRs (%) (plasma protein [3]; 5 μg/mL, 15 °C, n = 3): 14.39 ± 0.61 ^b % | PPBRs (%) (plasma protein [3]; [6]): 14.39 ± 0.61 ^a % | PPBRs (%) (plasma protein [3]; 5 μg/mL, 20 °C, n = 3): 17.46 ± 2.82 ^b % | PPBRs (%) (plasma protein [3]; [12]): 17.46 ± 2.82 ^ab % | PPBRs (%) (plasma protein [3]; 5 μg/mL, 25 °C, n = 3): 23.20 ± 5.87 ^b % | PPBRs (%) (plasma protein [3]; 10 μg/mL, 15 °C, n = 3): 9.30 ± 5.15 ^C % | PPBRs (%) (plasma protein [3]; [8]): 9.30% | PPBRs (%) (plasma protein [3]; [9]): 9.30 ± 5.15 ^a % | PPBRs (%) (plasma protein [3]; 10 μg/mL, 20 °C, n = 3): 10.84 ± 1.08 ^C % | PPBRs (%) (plasma protein [3]; [10]): 10.84 ± 1.08 ^a % | PPBRs (%) (plasma protein [3]; 10 μg/mL, 25 °C, n = 3): 7.77 ± 2.10 ^C % | PPBRs (%) (plasma protein [3]; [11]): 7.77 ± 2.10 ^a %

Reference: article PMC10251843 (Animals : an Open Access Journal from MDPI, 2023)
